Measurements reported in US7008630B2, “Lipochroman-6 as NO-synthase inhibitor and uses” (L' Oreal, priority 2000, dated 2006).

Target: T1, inducible NO-synthase (NO-synthase 2) (Homo sapiens, UniProt P35228)
T1 construct: positive control (induction of the enzyme): mixtures of γ-interferon (1 000 U/ml) and interleukin-1β (100 U/ml); endogenous in cells
Assay: Activity on inducible NO-synthase: decrease in nitrate and nitrite concentration after stimulation of NO-synthase 2 (test of Heck et al.)
Format: cell-based
Conditions: for % inhibition: induction with γ-interferon 1 000 U/ml and interleukin-1β 100 U/ml, nitrites and nitrates measured
Protocol: The activity of lipochroman-6 on inducible NO-synthase was evaluated in the test described by Heck et al. (J. B. C., Vol. 267, No. 30, 21277–21280, Oct. 25, 1992).
In order to determine the activity of the product to be tested, the amount of stable NO reaction products (nitrites and nitrates) is measured using the nitric calorimetric assay kit sold by the company Boehringer under the reference 1756.28.
The lipochroman-6 was tested at the concentrations of 0.005% and 0.01% (weight/volume) in ethanol.

T1 sequence (P35228 whole entry, species assumed): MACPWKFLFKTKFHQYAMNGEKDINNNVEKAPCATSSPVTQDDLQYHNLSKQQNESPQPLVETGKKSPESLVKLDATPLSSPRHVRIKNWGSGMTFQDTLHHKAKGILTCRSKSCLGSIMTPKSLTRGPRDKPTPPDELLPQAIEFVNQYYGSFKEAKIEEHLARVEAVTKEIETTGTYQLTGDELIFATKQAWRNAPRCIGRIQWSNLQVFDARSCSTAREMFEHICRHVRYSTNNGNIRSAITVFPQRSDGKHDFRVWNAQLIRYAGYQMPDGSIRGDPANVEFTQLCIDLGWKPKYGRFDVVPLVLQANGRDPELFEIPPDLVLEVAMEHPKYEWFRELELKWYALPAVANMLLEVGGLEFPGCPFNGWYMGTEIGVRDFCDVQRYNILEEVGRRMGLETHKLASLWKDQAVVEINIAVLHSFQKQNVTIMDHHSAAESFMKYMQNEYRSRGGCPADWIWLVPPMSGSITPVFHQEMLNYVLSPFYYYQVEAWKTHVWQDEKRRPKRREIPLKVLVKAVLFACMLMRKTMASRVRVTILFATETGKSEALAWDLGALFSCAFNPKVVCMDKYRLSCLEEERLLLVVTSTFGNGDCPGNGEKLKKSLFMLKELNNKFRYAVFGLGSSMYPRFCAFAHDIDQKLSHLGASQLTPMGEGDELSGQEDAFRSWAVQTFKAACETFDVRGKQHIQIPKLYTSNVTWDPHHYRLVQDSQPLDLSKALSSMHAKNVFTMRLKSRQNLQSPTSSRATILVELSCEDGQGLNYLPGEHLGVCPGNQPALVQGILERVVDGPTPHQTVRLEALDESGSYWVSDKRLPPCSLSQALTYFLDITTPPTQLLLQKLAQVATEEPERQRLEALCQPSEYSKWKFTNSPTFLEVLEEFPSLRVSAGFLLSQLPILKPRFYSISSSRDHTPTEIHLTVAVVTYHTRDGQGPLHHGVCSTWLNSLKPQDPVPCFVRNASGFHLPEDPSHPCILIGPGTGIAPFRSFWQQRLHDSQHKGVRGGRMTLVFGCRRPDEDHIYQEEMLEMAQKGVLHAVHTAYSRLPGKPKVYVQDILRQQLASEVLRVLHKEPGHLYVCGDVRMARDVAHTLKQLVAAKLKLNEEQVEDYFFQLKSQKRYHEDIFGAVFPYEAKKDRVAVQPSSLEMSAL

## COc1cc2c(cc1O)CCC(C)(C)O2 [Lipochroman-6, lipochroman-6]
  effect on inducible NO-synthase (in words): inhibitory effect
lipochroman-6 at 0.005% (weight/volume) in ethanol
  % inhibition: 38%
lipochroman-6 at 0.01% (weight/volume) in ethanol
  % inhibition: 95%
